GI50 and TGI data for 33 compounds are collected here from PubChem BioAssay (NCI).

For the assay, the system named is MDA-MB-468 breast. In words: NCI-60 cell line screen, 48 h.

Several values for one entry are separate records, joined by “and”; a condition that tells them apart may be missing. Identical values can stand only once.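 Interpolation was linear, between the two tested concentrations surrounding the appropriate level; five concentrations were tested over 48 hours in 96-well plates. GI50: concentration for 50% inhibition of growth. TGI denotes the concentration required for complete inhibition of growth.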 Some results are limits rather than exact numbers.

Consider `O=C(NC(=S)Nc1ccc(Cl)cc1)c1ccccc1`, for which the GI50 is 2560 nM and the TGI is over 85300 nM.
Taken in the same sequence, the figures for `S=C(Nc1ccc(Cl)cc1)Nc1ccc(Cl)cc1` (tested in a mixture with another compound) were 1700 nM and 5110 nM.
Taken in the same sequence, the figures for `O=C(Nc1ccc(Cl)cc1)c1cc2ccccc2cc1O` were 1610 nM and 7030 nM.
Taken in the same sequence, the figures for `O=C(Oc1ccc(CCl)cc1)c1ccccc1` were 142 nM and 325 nM.
As for `Cc1ccc2c(=O)c3cccc(CC(=O)O)c3oc2c1C`, the GI50 is over 100000 nM and the TGI is over 100000 nM.
With `CN(C)Cc1ccc(C(=O)Nc2ccc3ncnc(Nc4ccc(Oc5cccc(F)c5)c(Cl)c4)c3c2)cc1`, the GI50 was 1290 nM and the TGI worked out at 2790 nM.
In the same order, the values of `CCOC(=O)Oc1c(OC)cc(C(=O)O[C@@H]2C[C@@H]3CN4CCc5c([nH]c6cc(OC)ccc56)[C@H]4C[C@@H]3[C@H](C(=O)OC)[C@H]2OC)cc1OC` are 8130 nM and 23300 nM.
In the case of `CCN(CC)CCCCCCCNc1c2ccc(Cl)cc2nc2ccc(OC)cc12`, the GI50 is 1340 nM and the TGI was 2860 nM.
Regarding `COc1cc(/C=C/C(=O)c2ccc(Cl)cc2)ccc1OS(=O)(=O)c1ccc(C)cc1`, the GI50 was 8430 nM and the TGI was 32100 nM.
Taken in the same sequence, the figures for `C#C[C@]1(O)CC[C@H]2[C@@H]3CC=C4c5sc(Nc6cc(Cl)ccc6OC)nc5CC[C@]4(C)[C@H]3CC[C@@]21C` were 1690 nM and 4650 nM.
As for `COc1ccc(-c2nc(-c3ccccc3)c(-c3ccccc3)n2C2CC2)cc1OC1CCCC1`, the GI50 was 66800 nM and the TGI is over 165000 nM.
Taken in the same sequence, the figures for `COC(=O)/C(=C\c1c(C)[nH]c2ccccc12)S(=O)(=O)c1ccccc1` were 6250 nM and over 100000 nM.
As for `Cc1nc2cccc(NCc3ccc(C(=O)NO)cc3)c2c(=O)n1-c1ccccc1`, the GI50 is 1480 nM and the TGI was determined as 3100 nM.
As for `COc1ccc(-c2cn[nH]c2-c2cc(OC)c(OC)c(OC)c2)cc1N`, the GI50 is < 10 nM and 31.4 nM; the TGI is over 100000 nM.
With `C=C1C(=O)O[C@H]2[C@H]1CC/C(Cn1cc(-c3ccccc3)nn1)=C\CC[C@@]1(C)O[C@@H]21`, the GI50 is 953 nM and the TGI came to 1970 nM.
Taken in the same sequence, the figures for `S=C(N/N=C/c1ccccn1)Nc1ccccn1` were 1280 nM and 5760 nM.
As to `Cc1[nH]c(/C=C2\C(=O)Nc3ccc(F)cc32)c(C)c1C(=O)NC[C@H](O)CN1CCOCC1`, the GI50 was over 10000 nM and the TGI is over 10000 nM.
Take `COc1ccc(/C=C\c2cc(OC)c(OC)c(OC)c2)cc1OCC(=O)Nc1nc2ccc(C(F)(F)F)cc2s1`: the GI50 is 2160 nM and the TGI amounted to 6250 nM.
Regarding `O=C(Nc1ncc(Cc2ccccc2Cl)s1)c1ccc2c(c1)OCCO2`, the GI50 is 462 nM and the TGI was over 30600 nM.
In the same order, the values of `N=C(N)CCCCCCCCC(=N)N` are 10100 nM and over 100000 nM.
In the same order, the values of `Cc1ccc2c(N)c(C(=O)N[C@H]3CCc4cc(N5CC6CCC(C5)N6)ccc4C3)sc2n1` are 579 nM and 2070 nM.
With `O=C1C=Cc2ccccc2/C1=C/c1[nH]c(=O)[nH]c1O`, the GI50 was 2660 nM and the TGI was 7630 nM.
As for `CNC(=O)c1cccc(-c2ccc3c(N4CCOC[C@@H]4C)nc(N4CCOC[C@@H]4C)nc3n2)c1`, the GI50 is 43.6 nM and 116 nM and 68.1 nM; the TGI was 473 nM and 558 nM and 499 nM.
For the compound `O=C(NOCC1CC1)c1ccc(F)c(F)c1Nc1ccc(I)cc1Cl`, the GI50 is 2670 nM and the TGI came to 8210 nM.
In the same order, the values of `O=C1CCC2(C=C(Br)C(=O)C(Br)=C2)O1` are 1640 nM and 4290 nM.
Taken in the same sequence, the figures for `COc1ccc(-c2nc(-c3cn(C)c4ncccc34)cs2)cc1` were 3830 nM and over 100000 nM.
Consider `CC1(C)N=C(N)N=C(N)N1c1cc(Cl)ccc1Cl`, for which the GI50 is 28600 nM and the TGI was over 100000 nM.
Turning to `Nc1nc(-c2cccc([N+](=O)[O-])c2)c(N=Nc2ccc(Br)cc2)s1`, the GI50 was 11100 nM and the TGI is 34200 nM.
Taken in the same sequence, the figures for `O=C(Nc1cccc(-c2nc(-c3ccc(NC(=O)c4cccs4)cc3Cl)no2)c1)Nc1ccc(NC(=O)C2CC2)c(C(F)(F)F)c1` were 181 nM and 394 nM.
For `Cc1cc2c(F)c(Oc3ncnn4cc(OC[C@@H](C)OC(=O)[C@H](C)N)c(C)c34)ccc2[nH]1`, the GI50 is 9230 nM and the TGI came to 21800 nM.
Taken in the same sequence, the figures for `C[C@]12CC[C@@H]3c4ccc(O)cc4CC[C@H]3[C@@H]1CC[C@@H]2NS(=O)(=O)Cc1ccc(Cl)cc1` were 3630 nM and 16700 nM.
Regarding `CC(NNC(=S)N1CCCCCC1)c1ccc2ccccc2n1` (stereo unspecified), the GI50 was 603 nM and the TGI turned out to be 28100 nM.
Taken in the same sequence, the figures for `CCC1=Cc2c(OC)cccc2OC12C=Cc1c(OC)cccc1O2` (stereo unspecified) were 951 nM and over 100000 nM.
